Measured values as given in PMC9603521, “WYBQ-4: a New Bactericidal Agent against Methicillin-Resistant Staphylococcus aureus” (Microbiology Spectrum, 2022).
In brackets after ≈: the same amount, converted by molar mass.

Experiments:
[1] = target: T1, PBP2a (Staphylococcus aureus, UniProt P07944); assay: PBP2a deacylation rate, BOCILLIN FL as reporter; format: biochemical, MRSA; settings: deacylation of PBP2a
Procedure: (§1) Α = A + ∆ε E (k∗ ∕ (k∗ + k∗)(1 − exp (−(k∗ + k∗)t)) + k N ∆ε Ε t (2)
(§2) Where kn* is the pseudo-first-order rate constant for acylation by nitrocefin at the concentration (N0) employed (0.1 mM), ki* the pseudo-first-order rate constant for the reaction of PBP2a with the WYBQ-4, E0 the initial enzyme concentration (2.5 µM), and k0 the second-order rate constant of nonspecific nitrocefin hydrolysis. Second-order rate constants (ki) for acylation were calculated from a linear least-squares fit to a plot of the apparent first-order rate constants (ki*) against the concentration of WYBQ-4. All plots were linear for the concentrations of WYBQ-4 used.
(§3) Determination of dissociation equilibrium constants (Ks) of WYBQ-4 and PBP2a The dissociation equilibrium constant (Ks) of PBP2a with WYBQ-4 were determined by the BOCILLIN method (2), as previously described. […] Samples (30 μL) were loaded onto a 10% SDS-polyacrylamide gel, which was developed and then observed using a fluorescence imager to calculate the grayscale curve. […]
(§4) The deacylation rate constants for wild-type PBP2a were determined using BOCILLIN FL as a reporter molecule. […]
(§5) The mixture was diluted 5 times with buffer and incubated at room temperature for different time intervals. […] Grayscale analysis was performed by imageJ and the rate constant k3 for the deacylation reaction of WYBQ-4 with PBP2a was determined based on eqn (3): […]

[2] = target: T1, PBP2a; assay: Dissociation equilibrium constant (Ks) by BOCILLIN FL method; format: binding, MRSA
Procedure: as §1, §2, §3, §4, §5

[3] = system: methicillin-susceptible Staphylococcus aureus (MSSA) 29213; assay: MIC by broth microdilution (CLSI); format: cell-based
Procedure: (§6) The antibacterial spectrum and susceptibility of WYBQ-4 against MRSA USA300, MSSA 29213, and clinically isolated S. aureus were determined using a broth microdilution method following the guidelines outlined by the Clinical and Laboratory Standards Institute (CLSI) ([37], [38]). […] The absorbance was measured at 600 nm, and experiments were repeated in three biological replicates.

[4] = system: MRSA USA300; assay: MIC by broth microdilution (CLSI); format: cell-based; settings: Staphylococcus aureus
Procedure: as §6

[5] = target: PBP2 (Staphylococcus aureus, UniProt Q9R744); assay: PBP binding, bocillin competition fluorescence gel assay
Procedure: (§7) Using the genome of S. aureus USA300 as a template, PCR was performed to amplify PBP1, PBP2, PBP3, PBP4, and PBP2a genes with primers designed according to Table 1. Then, the amplified fragments were treated with BamHI/XhoI and then inserted into the cloning site of the BamHI/XhoI-digested pET28a to yield pET28a-PBP1, pET28a-PBP2, pET28a-PBP3, pET28a-PBP4, and pET28a-PBP2a, respectively. The plasmid was transformed into E. coli BL21(DE3) and cultured in LB medium containing Kan resistance until the OD600 reached 0.6, and PBP expression was induced overnight at 16°C by adding 0.5 mM IPTG (isopropyl-β-D-thiogalactopyranoside). The bacteria were then lysed by sonication, the […] was collected, and the proteins were purified using a HIS-Select nickel affinity gel system (Beyotime, Shanghai, China).
(§8) PBP binding assays were performed as previously described ([30], [31]). Selective labeling of PBP from preincubated samples ([…] protein) with various concentrations of WYBQ-4 was performed for 15 min, and then 25 μM BOCILLIN FL (Invitrogen) was added, followed by an additional 10 min at 37°C. Proteins were separated by SDS-PAGE, and the PBPs were detected by a gel fluorescence imaging instrument (excitation, 488 nm; emission, 530 nm).

[6] = target: PBP1 (Staphylococcus aureus, UniProt Q53725); assay: as above; settings: dose-dependent
Procedure: as §7, §8

[7] = target: PBP4 (Staphylococcus aureus, UniProt P72355); assay: as above; settings: dose-dependent
Procedure: as §7, §8

[8] = target: PBP3 (Staphylococcus aureus, UniProt Q9XDB3); assay: as above; settings: dose-dependent
Procedure: as §7, §8

[9] = target: PBP2a (Staphylococcus aureus, UniProt Q53707); assay: as above
Procedure: as §7, §8

[10] = Acute toxicity test in mice; format: in vivo; settings: intraperitoneal injection 300 mg/kg
Procedure: Acute toxicity test in mice. The acute toxicity test in mice was performed according to the requirements of the Chinese Guidelines for Acute Toxicity of Chemicals (H-GPT1-1) ([42]). In brief, each group of 6 female mice (6 to 8 weeks old, weights of 18 to 20 g, BALB/c) was intraperitoneally injected with a single dose of 300, 150, or 75 mg/kg body weight of WYBQ-4. The mice were injected with PBS as a control group. Then, the poisoning symptoms, abnormal behavior, and survival of the mice in each group were observed within 72 h.

[11] = system: Enterococcus faecalis; assay: MIC by broth microdilution (CLSI); format: cell-based; settings: compared to that against Staphylococcus

T1 sequence (P07944 whole entry): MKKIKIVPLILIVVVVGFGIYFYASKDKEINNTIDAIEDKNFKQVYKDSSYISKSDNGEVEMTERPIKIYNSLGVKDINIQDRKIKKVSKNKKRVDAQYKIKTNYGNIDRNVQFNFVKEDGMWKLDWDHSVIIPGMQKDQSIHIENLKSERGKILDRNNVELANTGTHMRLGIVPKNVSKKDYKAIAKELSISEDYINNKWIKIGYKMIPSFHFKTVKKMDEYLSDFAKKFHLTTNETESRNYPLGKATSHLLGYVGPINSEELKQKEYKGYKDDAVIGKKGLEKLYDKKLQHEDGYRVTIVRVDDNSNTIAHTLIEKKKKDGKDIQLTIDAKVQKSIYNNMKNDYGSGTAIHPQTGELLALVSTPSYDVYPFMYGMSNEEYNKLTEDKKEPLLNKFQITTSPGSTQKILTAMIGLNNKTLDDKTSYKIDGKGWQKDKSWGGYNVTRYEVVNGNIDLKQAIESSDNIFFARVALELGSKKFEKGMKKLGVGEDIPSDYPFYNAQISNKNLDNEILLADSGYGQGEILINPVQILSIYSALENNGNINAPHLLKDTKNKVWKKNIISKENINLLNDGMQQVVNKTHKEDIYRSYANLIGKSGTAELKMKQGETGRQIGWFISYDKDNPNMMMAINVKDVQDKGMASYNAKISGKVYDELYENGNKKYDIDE
Chain of PBP2a (Staphylococcus aureus, UniProt Q53707) (Q53707 entry or part of it): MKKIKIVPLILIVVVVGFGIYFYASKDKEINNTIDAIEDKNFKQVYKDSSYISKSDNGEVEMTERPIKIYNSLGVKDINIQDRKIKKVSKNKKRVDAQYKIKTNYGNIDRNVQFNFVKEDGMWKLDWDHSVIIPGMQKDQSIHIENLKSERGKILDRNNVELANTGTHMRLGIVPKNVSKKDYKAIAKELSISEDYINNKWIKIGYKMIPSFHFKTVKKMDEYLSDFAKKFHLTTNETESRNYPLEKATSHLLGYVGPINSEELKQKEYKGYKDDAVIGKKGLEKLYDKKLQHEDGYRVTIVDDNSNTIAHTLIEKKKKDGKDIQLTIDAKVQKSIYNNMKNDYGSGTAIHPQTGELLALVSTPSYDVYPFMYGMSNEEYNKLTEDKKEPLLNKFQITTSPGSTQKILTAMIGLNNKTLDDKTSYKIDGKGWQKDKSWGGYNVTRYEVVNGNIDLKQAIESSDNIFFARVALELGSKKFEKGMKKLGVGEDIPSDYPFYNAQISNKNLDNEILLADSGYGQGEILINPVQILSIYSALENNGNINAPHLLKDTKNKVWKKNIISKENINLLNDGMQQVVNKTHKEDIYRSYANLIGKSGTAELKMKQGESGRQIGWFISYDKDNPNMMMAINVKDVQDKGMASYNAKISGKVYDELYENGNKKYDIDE
Chain of PBP3 (Q9XDB3 1-691): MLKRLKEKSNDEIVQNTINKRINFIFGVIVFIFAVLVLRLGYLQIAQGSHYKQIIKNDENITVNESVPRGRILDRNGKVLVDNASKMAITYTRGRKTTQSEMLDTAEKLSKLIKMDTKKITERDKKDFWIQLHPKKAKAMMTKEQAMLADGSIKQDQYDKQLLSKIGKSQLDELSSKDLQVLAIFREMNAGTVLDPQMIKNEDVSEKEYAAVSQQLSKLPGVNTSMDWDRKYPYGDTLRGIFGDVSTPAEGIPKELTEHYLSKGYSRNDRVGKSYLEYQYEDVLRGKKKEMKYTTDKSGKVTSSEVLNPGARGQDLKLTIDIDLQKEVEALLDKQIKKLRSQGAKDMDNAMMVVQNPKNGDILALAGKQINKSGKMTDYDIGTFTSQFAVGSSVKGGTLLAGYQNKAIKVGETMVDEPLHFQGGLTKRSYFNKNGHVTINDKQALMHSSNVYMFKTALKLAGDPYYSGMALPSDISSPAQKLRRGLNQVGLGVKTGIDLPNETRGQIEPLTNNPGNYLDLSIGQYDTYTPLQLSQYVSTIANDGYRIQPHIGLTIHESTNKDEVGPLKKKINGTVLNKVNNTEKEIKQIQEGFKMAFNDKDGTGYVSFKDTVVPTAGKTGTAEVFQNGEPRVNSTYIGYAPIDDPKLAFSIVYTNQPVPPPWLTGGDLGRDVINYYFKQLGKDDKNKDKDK
Chain of PBP4 (P72355 25-431): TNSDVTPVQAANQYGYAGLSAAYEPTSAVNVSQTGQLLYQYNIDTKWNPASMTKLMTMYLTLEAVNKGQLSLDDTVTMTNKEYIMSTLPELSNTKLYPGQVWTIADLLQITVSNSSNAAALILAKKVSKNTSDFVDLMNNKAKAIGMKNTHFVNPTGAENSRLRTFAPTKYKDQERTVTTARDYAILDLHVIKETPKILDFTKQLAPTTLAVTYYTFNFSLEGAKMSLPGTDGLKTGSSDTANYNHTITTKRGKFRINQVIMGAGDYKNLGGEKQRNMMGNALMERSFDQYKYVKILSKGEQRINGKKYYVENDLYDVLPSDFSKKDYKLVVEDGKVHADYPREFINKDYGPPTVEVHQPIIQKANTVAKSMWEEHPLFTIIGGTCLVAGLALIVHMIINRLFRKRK
Chain of PBP1 (Q53725 1-744): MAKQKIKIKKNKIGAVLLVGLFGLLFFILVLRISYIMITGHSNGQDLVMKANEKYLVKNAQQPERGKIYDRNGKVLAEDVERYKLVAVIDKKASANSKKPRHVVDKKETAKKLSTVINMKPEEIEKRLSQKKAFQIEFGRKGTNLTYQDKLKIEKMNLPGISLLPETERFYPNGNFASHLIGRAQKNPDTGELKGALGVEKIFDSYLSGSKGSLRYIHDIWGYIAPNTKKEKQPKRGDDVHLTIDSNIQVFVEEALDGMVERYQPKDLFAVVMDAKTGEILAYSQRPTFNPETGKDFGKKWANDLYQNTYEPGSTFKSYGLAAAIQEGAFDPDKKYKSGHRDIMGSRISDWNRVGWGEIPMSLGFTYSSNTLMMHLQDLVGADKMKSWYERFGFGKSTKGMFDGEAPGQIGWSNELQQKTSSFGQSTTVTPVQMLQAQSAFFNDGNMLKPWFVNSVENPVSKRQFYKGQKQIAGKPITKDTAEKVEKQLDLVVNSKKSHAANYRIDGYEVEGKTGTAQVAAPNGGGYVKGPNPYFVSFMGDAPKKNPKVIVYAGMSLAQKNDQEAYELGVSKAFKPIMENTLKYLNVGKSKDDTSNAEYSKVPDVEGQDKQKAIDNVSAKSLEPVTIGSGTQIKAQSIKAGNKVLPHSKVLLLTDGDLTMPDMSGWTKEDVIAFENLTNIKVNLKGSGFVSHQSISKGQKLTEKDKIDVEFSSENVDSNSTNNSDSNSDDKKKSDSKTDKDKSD
Chain of PBP2 (Q9R744 1-727): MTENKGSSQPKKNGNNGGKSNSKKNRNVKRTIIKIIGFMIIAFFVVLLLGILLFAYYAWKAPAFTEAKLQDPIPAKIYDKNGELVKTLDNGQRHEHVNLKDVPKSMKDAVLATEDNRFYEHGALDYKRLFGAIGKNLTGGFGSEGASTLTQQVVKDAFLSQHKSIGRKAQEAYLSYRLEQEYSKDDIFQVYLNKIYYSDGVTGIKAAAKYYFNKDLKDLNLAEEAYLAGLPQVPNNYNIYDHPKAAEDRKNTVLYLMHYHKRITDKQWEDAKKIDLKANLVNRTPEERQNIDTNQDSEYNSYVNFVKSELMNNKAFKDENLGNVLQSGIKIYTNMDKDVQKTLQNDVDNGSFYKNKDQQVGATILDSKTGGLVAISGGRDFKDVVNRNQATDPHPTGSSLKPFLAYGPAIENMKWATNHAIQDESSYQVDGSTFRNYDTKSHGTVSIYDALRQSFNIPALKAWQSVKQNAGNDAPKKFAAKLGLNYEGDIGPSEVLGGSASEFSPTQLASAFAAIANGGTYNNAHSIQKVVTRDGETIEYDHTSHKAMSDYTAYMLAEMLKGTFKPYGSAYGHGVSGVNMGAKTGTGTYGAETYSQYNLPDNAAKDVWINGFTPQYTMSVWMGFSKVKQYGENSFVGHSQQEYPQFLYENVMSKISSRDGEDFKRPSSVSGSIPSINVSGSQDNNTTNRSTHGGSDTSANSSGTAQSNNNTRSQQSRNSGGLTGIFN

For `C#CCO[C@@]1(NC(=O)CSc2cccc(C)c2)C(=O)N2C(C(=O)O)=C(CSc3nnnn3C)CSC21` (stereo partly drawn) [WYBQ-4], the k3 [1] was 11 ± 1.32 s^–1 × 10^6, the Kd [2] was 28 ± 1.24 µM and the MIC [3] was 0.5 µg/mL (≈ 0.915 µM). For the same molecule, the MIC [4] was 8 µg/mL (≈ 14.6 µM), the “concentration at which bocillin fluorescence disappeared completely” value [5] was 0.25 µg/mL and the “affinity for PBP1 (bocillin competition)” value [6] was “had an affinity”. For the same molecule, the “affinity for PBP4 (bocillin competition)” value [7] was “had an affinity”, the “affinity for PBP3 (bocillin competition)” value [8] was “had an affinity” and the IC50 [9] was 3.66 µM. For the same molecule, the “concentration that completely competed for the binding of bocillin” value ([9]; PBP2a) was 2 µg/mL, the “acute toxicity, survival of mice” value [10] was “did not affect the survival of the mice” and the antibacterial activity [11] was “weak”.
